Test results taken from publication PMC5814047, “Peptidic inhibitors of insulin-degrading enzyme with potential for dermatological applications discovered via phage display” (PLoS ONE, 2018).
Where “and” joins values, the source holds several entries; their conditions need not be identical. Equal entries are not always repeated. Bridge positions count the residues as written; N and C are the ends. Peptide text beside a SMILES is read from it.

What was measured:
[1] = tested on: hydroxyproline secreted by primary murine skin fibroblasts; test: Hydroxyproline secretion into medium; type: cell-based
Experimental: (§1) Insulin promotes wound healing and overall skin health by affecting a number of processes, including cell proliferation, cell migration, and the production and secretion of ECM components, particularly type I collagen. We therefore assessed the ability of P12-3A to influence these processes in cultured skin fibroblasts and keratinocytes. To that end, primary mouse skin fibroblasts were grown for 4 d in multiple concentrations of insulin in the presence or absence of P12-3A, and insulin concentration over time was monitored by ELISA. […] Finally, the effects of P12-3A on collagen production in were assessed at both the transcriptional and the posttranslational level in confluent monolayers of fibroblasts. After 4 d of treatment with P12-3A (100 μM), mRNA levels for the major form of collagen, alpha-1 type I collagen (COL1A1), were quantified by RT-PCR and found to be increased to ~2.6 times the levels of untreated cells (Fig 4C). To assess overall levels of collagen production and secretion, we quantified levels of hydroxyproline, a modified amino acid present almost exclusively in collagen proteins. […] Western blotting also confirmed that mature, cell-associated collagen levels were increased in the presence of P12-3A (Fig 4E).
(§2) Fig 4 Effects of P12-3A on cultured skin cells. A, Insulin concentrations as a function of time in logarithmically growing primary murine skin fibroblasts in the absence or presence of P12-3A (100 μM). […] Data are mean ± SEM of 4 independent replications. *P<0.05, **P<0.01. B, Proliferation of cells in the absence or presence of P12-3A (100 μM). Data are mean ± SEM of 6 independent replications. […] C,D,E, P12-3A (100 μM) potentiates insulin-induced collagen production in skin fibroblasts. Collagen production was assessed by COL1A1 mRNA levels (C), levels of hydroxyproline secreted into the medium (D), and cell-associated mature alpha-1 type I collagen levels detected by Western blotting (E). Data are mean ± SD of 4 independent replications. *P<0.05, **P<0.01. […] Migration of HaCaT cells 48 h after induction of a scratch wound in the presence of the indicated quantities of insulin and/or P12-3A (100 μM). Data are mean ± SEM of 6 independent replications. *P<0.05, **P<0.01.
For quantitation of hydroxyproline secretion by primary murine skin fibroblasts, cells (1 x 10^5/well) were plated in 24-well plates DMEM supplemented with 10% FBS, 2mM glutamine, penicillin, streptomycin and 100 nM insulin, in the absence or presence of 100 μM P12-3A. After incubation for 4 days, the conditioned medium was removed, centrifuged at 1000 x g for 10 min to remove cellular debris, and hydroxyproline levels were quantified using the Hydroxyproline Assay Kit according to manufacturer’s recommendations (Sigma-Aldrich, St. Louis, MO, USA).

[2] = tested on: HaCaT cells; test: In vitro scratch wound migration assay; type: cell-based; settings: for migration of keratinocytes, single replicates (average of two observers) / migration of keratinocytes, Mean: 48 hr after scratching; for migration of keratinocytes, Mean: N 6
Experimental: as §1, §2
Cell migration in HaCaT cells after induction of scratch wounds was quantified essentially as described. Briefly, HaCaT cells maintained in optimized DMEM (AddexBio Technologies, San Diego, CA, USA) supplemented with 10% FBS, penicillin and streptomycin, were grown to confluency in 24-well tissue culture plates, and scratch wounds were induced with a 200-μL pipette tip. After growth for 48 h in the absence or presence of insulin (10 nM or 100 nM) and/or P12-3A (100 μM), cell migration distance was quantified by two independent, blinded observers using a Nikon TMS inverted light microscope (Nikon Corp., Melville, NY, USA) fitted with a ruler reticle.

[3] = tested on: cultured skin cells; test: Toxicity in cell culture experiments; type: cell-based
Text: Although a variety of potent and selective IDE inhibitors have been developed, current inhibitors are difficult to synthesize, expensive to generate and/or contain chemical moieties or constituents with established or undetermined potential for toxicity. Due to these and other considerations, existing IDE inhibitors are poorly suited for topical applications. To overcome these limitations, in the present study we aimed to develop peptidic inhibitors of IDE suitable for use in wound healing or cosmetic applications. […] To that end, we used phage display technology to select for a range of peptides that bind to IDE with strong affinity, which were then screened for resistance to degradation by IDE.

[4] = tested on: 15 different proteases; test: Selectivity against 15 different proteases (S4 Fig); type: biochemical; settings: P12-3A 100 μM
Experimental: Taken together with the potency of all peptides against insulin (Table 1), we concluded that P12-3A represented the best inhibitor for further studies, and a highly purified, deliberately cyclized version (Fig 3A) was synthesized. […] Based on its potency, stability and selectivity for IDE, P12-3A was selected for use in downstream assays.
IDE activity was quantified by monitoring the degradation of Mca-[…](Dnp) (FRET1, 5 μM), fluoresceinated and biotinylated amyloid ß-protein (FAßB; 500 nM) or recombinant human insulin (50 nM) in PBS supplemented with 0.05% BSA. FRET1 degradation was measured by changes in fluorescence (λex = 340 nm, λem = 420 nm); FAßB degradation was monitored by fluorescence polarization (λex = 488 nm, λem = 525 nm), as described; and insulin degradation was quantified by ELISA. In vitro activity assays incorporated recombinant human IDE (1 nM) purified from bacteria. For quantitation of insulin degradation in primary murine skin fibroblasts, cells (1 x 10^5/well) were plated in 96-well plates and maintained in DMEM supplemented with 10% fetal bovine serum (FBS), 2mM glutamine, penicillin and streptomycin. After addition of insulin (10 nM or 100 nM), samples of conditioned medium were removed daily and quickly frozen, then insulin levels were quantified in parallel by ELISA according to manufacturer’s recommendations (Crystal Chem, Downers Grove, IL, USA). […]

SMILES: CC(C)C[C@H](NC(=O)[C@H](CO)NC(=O)[C@@H](N)CCC(N)=O)C(=O)N1CCC[C@H]1C(=O)N[C@@H](Cc1c[nH]c2ccccc12)C(=O)N[C@H]1CSSC[C@@H](C(=O)N[C@H](C(=O)N[C@H](C(N)=O)[C@@H](C)O)C(C)C)NC(=O)[C@H](Cc2c[nH]cn2)NC(=O)[C@@H]2CCCN2C(=O)[C@H](Cc2ccc(O)cc2)NC1=O [P12-3A] (H-QSLPWCYPHCVT-NH2; disulfide 6-10 (inferred))
- hydroxyproline levels secreted into the medium ([1]; 100 μM P12-3A, 100 nM insulin, 4 days): ~ 4.6 times that secreted by untreated cells
- Hydroxyproline, Mean ([1]; from standard curve, N 4): 0.989 ug/well
- Hydroxyproline ([1]; from standard curve, individual replicates): 0.7793 ug/well and 1.026 ug/well and 0.6312 ug/well and 1.309 ug/well
- Hydroxyproline, Normalized, Mean ([1]; normalized to control mean (1.000), N 4): 4.585
- Hydroxyproline, Normalized ([1]; normalized to control mean (1.000), individual replicates): 3.613 and 4.758 and 2.926 and 6.069
- Hydroxyproline quantification, OD560 ([1]; raw OD560, individual replicates): 0.849 and 1.1137 and 0.6903 and 1.4165
- migration of keratinocytes, single replicates (average of two observers) ([2]; 10 nM ins): 10.5 mm and 10.6 mm and 10.1 mm and 8.4 mm and 4.9 mm and 12.6 mm
- migration of keratinocytes, Mean ([2]; 10 nM ins): 9.5 mm
- migration of keratinocytes, single replicates (average of two observers) ([2]; 100 nM ins): 10.1 mm and 11.5 mm and 16.4 mm and 11.4 mm and 14.4 mm and 18.1 mm
- migration of keratinocytes, Mean ([2]; 100 nM ins): 13.6 mm
- migration of keratinocytes ([2]; 100 μM P12-3A, different concentrations of insulin, 48 h): statistically significant increases
- migration of keratinocytes, single replicates (average of two observers) ([2]; no ins): 5.0 mm and 5.9 mm and 3.4 mm and 8.3 mm and 3.2 mm and 4.0 mm
- migration of keratinocytes, Mean ([2]; no ins): 4.9 mm
- toxicity in cell culture experiments [3]: no evidence of toxicity
- inhibition against 15 different proteases [4]: essentially no inhibition
